# According to ChEMBL document CHEMBL1134403, “Structure-based approach for the discovery of bis-benzamidines as novel inhibitors of matriptase” (J Med Chem, 2001):
# How the values were obtained:
# Prothrombin = Prothrombin (Homo sapiens, UniProt P00734); test: compound was tested for inhibitory activity against Thrombin
# [1] = biological target: T1, Suppressor of tumorigenicity 14 protein (Homo sapiens, UniProt Q9Y5Y6); test: compound was tested for inhibitory activity against Matriptase
# T1 sequence (Q9Y5Y6 whole entry): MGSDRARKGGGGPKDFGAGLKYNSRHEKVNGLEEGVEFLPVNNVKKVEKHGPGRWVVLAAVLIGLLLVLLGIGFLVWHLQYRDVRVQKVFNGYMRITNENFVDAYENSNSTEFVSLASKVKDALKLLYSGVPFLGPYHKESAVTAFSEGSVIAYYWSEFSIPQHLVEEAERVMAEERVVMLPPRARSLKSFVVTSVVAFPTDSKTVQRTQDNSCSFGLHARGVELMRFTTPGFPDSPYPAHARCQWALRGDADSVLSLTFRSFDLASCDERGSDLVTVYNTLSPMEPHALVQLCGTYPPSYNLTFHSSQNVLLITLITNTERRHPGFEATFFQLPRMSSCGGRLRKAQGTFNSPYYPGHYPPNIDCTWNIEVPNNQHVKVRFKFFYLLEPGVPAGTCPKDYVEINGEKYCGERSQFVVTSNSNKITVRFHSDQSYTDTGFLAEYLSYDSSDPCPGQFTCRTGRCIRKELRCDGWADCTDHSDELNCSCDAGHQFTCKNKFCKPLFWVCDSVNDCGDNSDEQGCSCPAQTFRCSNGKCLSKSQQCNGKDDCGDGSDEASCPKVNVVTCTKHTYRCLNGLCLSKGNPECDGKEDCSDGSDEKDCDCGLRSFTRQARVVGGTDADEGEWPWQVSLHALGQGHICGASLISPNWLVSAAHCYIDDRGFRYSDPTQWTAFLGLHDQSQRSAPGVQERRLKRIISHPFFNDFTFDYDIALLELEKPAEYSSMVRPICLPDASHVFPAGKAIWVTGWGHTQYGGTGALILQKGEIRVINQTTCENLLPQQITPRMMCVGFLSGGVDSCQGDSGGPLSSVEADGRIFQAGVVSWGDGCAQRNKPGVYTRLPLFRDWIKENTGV
Compound,Ki (Prothrombin) [nM],Ki [1] [nM]
N=C(N)c1ccc(Oc2ccc(Oc3ccc(C(=N)N)cc3)cc2)cc1,2670,–
N=C(N)c1ccc(CCc2ccc(C(=N)N)cc2)cc1,–,> 10000
N=C(N)c1ccc(OCCCOc2ccc(C(=N)N)cc2Br)c(Br)c1 [DIBROMPROPAMIDINE],946,–

# Continued, values first:
Ki (Prothrombin) [nM],Ki [1] [nM],Compound
224,–,N=C(N)c1ccc(OCCCCCCOc2ccc(C(=N)N)cc2)cc1 [HEXAMIDINE]
796,–,N=C(N)c1ccc(OCCCCCCOc2ccc(C(=N)N)cc2I)cc1
